Mutagenic call data for five compounds are collected here from PubChem BioAssay AID1259407 (Chemical Carcinogenesis Research Information System (CCRIS), 2018).

Calls of active or inactive are those of the source. No rule for the calls is given here.

The series has as its system CCRIS mutagenicity, Ames/micronucleus/aberration tests. The series is described as follows: CCRIS mutagenicity studies.
Where [1] appears, read: Test System: AMES SALMONELLA TYPHIMURIUM, Strain/Indicator: TA97, Metabolic Activation: HAMSTER, LIVER, S-9, AROCLOR 1254 (10%), Method: PREINCUBATION
Setting [2] is: Test System: AMES SALMONELLA TYPHIMURIUM, Strain/Indicator: TA97, Metabolic Activation: NONE, Method: PREINCUBATION
Where [3] appears, read: Test System: AMES SALMONELLA TYPHIMURIUM, Strain/Indicator: TA97, Metabolic Activation: RAT, LIVER, S-9, AROCLOR 1254 (10%), Method: PREINCUBATION
[4] abbreviates: Test System: AMES SALMONELLA TYPHIMURIUM, Strain/Indicator: TA98, Metabolic Activation: HAMSTER, LIVER, S-9, AROCLOR 1254 (30%), Method: PREINCUBATION
[5] abbreviates: Test System: AMES SALMONELLA TYPHIMURIUM, Strain/Indicator: TA98, Metabolic Activation: NONE, Method: PREINCUBATION
The mark [6] stands for this setting: Test System: AMES SALMONELLA TYPHIMURIUM, Strain/Indicator: TA100, Metabolic Activation: HAMSTER, LIVER, S-9, AROCLOR 1254 (10%), Method: PREINCUBATION
Setting [7] is: Test System: AMES SALMONELLA TYPHIMURIUM, Strain/Indicator: TA100, Metabolic Activation: NONE, Method: PREINCUBATION
The mark [8] stands for this setting: Test System: AMES SALMONELLA TYPHIMURIUM, Strain/Indicator: TA100, Metabolic Activation: RAT, LIVER, S-9, AROCLOR 1254 (10%), Method: PREINCUBATION
Where [9] appears, read: Test System: AMES SALMONELLA TYPHIMURIUM, Strain/Indicator: TA1535, Metabolic Activation: HAMSTER, LIVER, S-9, AROCLOR 1254 (10%), Method: PREINCUBATION
Where [10] appears, read: Test System: AMES SALMONELLA TYPHIMURIUM, Strain/Indicator: TA1535, Metabolic Activation: NONE, Method: PREINCUBATION
The mark [11] stands for this setting: Test System: AMES SALMONELLA TYPHIMURIUM, Strain/Indicator: TA1535, Metabolic Activation: RAT, LIVER, S-9, AROCLOR 1254 (10%), Method: PREINCUBATION
Where [12] appears, read: Test System: AMES SALMONELLA TYPHIMURIUM, Strain/Indicator: TA98, Metabolic Activation: NONE.
[13] abbreviates: Test System: AMES SALMONELLA TYPHIMURIUM, Strain/Indicator: TA98, Metabolic Activation: S-9.

In the case of `N#Cc1nn(-c2c(Cl)cc(C(F)(F)F)cc2Cl)c(N)c1S(=O)C(F)(F)F` (configuration not stated), the mutagenic call is, setting by setting: (End Point: Ames Salmonella typhimurium, Test System: TA98, Metabolic Activation: None, Method: Plate incorporation) “inactive; negative”; (End Point: Ames Salmonella typhimurium, Test System: TA98, Metabolic Activation: Rat, Liver, S-9, Aroclor 1254, Method: Plate incorporation) “inactive; negative”; (End Point: Ames Salmonella typhimurium, Test System: TA100, Metabolic Activation: None, Method: Plate incorporation) “inactive; negative”; (End Point: Ames Salmonella typhimurium, Test System: TA100, Metabolic Activation: Rat, Liver, S-9, Aroclor 1254, Method: Plate incorporation) “inactive; negative”; (End Point: Ames Salmonella typhimurium, Test System: TA1535, Metabolic Activation: None, Method: Plate incorporation) “inactive; negative”; (End Point: Ames Salmonella typhimurium, Test System: TA1535, Metabolic Activation: Rat, Liver, S-9, Aroclor 1254, Method: Plate incorporation) “inactive; negative”. Besides, the mutagenic call was “inactive; negative” (End Point: Ames Salmonella typhimurium, Test System: TA1537, Metabolic Activation: None, Method: Plate incorporation); “inactive; negative” (End Point: Ames Salmonella typhimurium, Test System: TA1537, Metabolic Activation: Rat, Liver, S-9, Aroclor 1254, Method: Plate incorporation); “inactive; negative” (End Point: In vitro chromosomal aberrations, Test System: Human lymphocytes (male and female), Metabolic Activation: None); “inactive; negative” (End Point: In vitro chromosomal aberrations, Test System: Human lymphocytes (male and female), Metabolic Activation: Rat, Liver, S-9, Aroclor 1254); “inactive; negative” (End Point: In vivo micronucleus, Test System: Bone marrow polychromatic erythrocytes, Species: Mouse, Strain/Sex: CD-1/Male and female, Route: Oral); “inactive; negative” (Test System: HGPRT mutations, Strain/Indicator: Chinese hamster V79 cells, Metabolic Activation: None). Further, where the note is “Test System: HGPRT mutations, Strain/Indicator: Chinese hamster V79 cells, Metabolic Activation: Rat, Liver, S-9, Aroclor 1254”, the mutagenic call was “inactive; negative”.

As for `CC(CC(=O)O)C(=O)O` (configuration not stated), the mutagenic call was “inactive; negative” under setting [1]; “inactive; negative” (Test System: AMES SALMONELLA TYPHIMURIUM, Strain/Indicator: TA97, Metabolic Activation: HAMSTER, LIVER, S-9, AROCLOR 1254 (30%), Method: PREINCUBATION); “inactive; negative” under setting [2]; “inactive; negative” under setting [3]; “inactive; negative” (Test System: AMES SALMONELLA TYPHIMURIUM, Strain/Indicator: TA97, Metabolic Activation: RAT, LIVER, S-9, AROCLOR 1254 (30%), Method: PREINCUBATION); “inactive; negative” (Test System: AMES SALMONELLA TYPHIMURIUM, Strain/Indicator: TA98, Metabolic Activation: HAMSTER, LIVER, S-9, AROCLOR 1254 (10%), Method: PREINCUBATION). The mutagenic call reads like this: under setting [4], “inactive; negative”; under setting [5], “inactive; negative”; (Test System: AMES SALMONELLA TYPHIMURIUM, Strain/Indicator: TA98, Metabolic Activation: RAT, LIVER, S-9, AROCLOR 1254 (10%), Method: PREINCUBATION) “inactive; negative”; (Test System: AMES SALMONELLA TYPHIMURIUM, Strain/Indicator: TA98, Metabolic Activation: RAT, LIVER, S-9, AROCLOR 1254 (30%), Method: PREINCUBATION) “inactive; negative”; under setting [6], “inactive; negative”; (Test System: AMES SALMONELLA TYPHIMURIUM, Strain/Indicator: TA100, Metabolic Activation: HAMSTER, LIVER, S-9, AROCLOR 1254 (30%), Method: PREINCUBATION) “inactive; negative”. The mutagenic call runs as follows: under setting [7], “inactive; negative”; under setting [8], “inactive; negative”; (Test System: AMES SALMONELLA TYPHIMURIUM, Strain/Indicator: TA100, Metabolic Activation: RAT, LIVER, S-9, AROCLOR 1254 (30%), Method: PREINCUBATION) “inactive; negative”; under setting [9], “inactive; negative”; (Test System: AMES SALMONELLA TYPHIMURIUM, Strain/Indicator: TA1535, Metabolic Activation: HAMSTER, LIVER, S-9, AROCLOR 1254 (30%), Method: PREINCUBATION) “inactive; negative”; under setting [10], “inactive; negative”. Moreover, the mutagenic call under setting [11] was “inactive; negative”; the mutagenic call (Test System: AMES SALMONELLA TYPHIMURIUM, Strain/Indicator: TA1535, Metabolic Activation: RAT, LIVER, S-9, AROCLOR 1254 (30%), Method: PREINCUBATION) was “inactive; negative”; the mutagenic call (Test System: AMES SALMONELLA TYPHIMURIUM, Strain/Indicator: TA1537, Metabolic Activation: HAMSTER, LIVER, S-9, AROCLOR 1254 (30%), Method: PREINCUBATION) was “inactive; negative”; the mutagenic call (Test System: AMES SALMONELLA TYPHIMURIUM, Strain/Indicator: TA1537, Metabolic Activation: NONE, Method: PREINCUBATION) is “inactive; negative”; the mutagenic call (Test System: AMES SALMONELLA TYPHIMURIUM, Strain/Indicator: TA1537, Metabolic Activation: RAT, LIVER, S-9, AROCLOR 1254 (30%), Method: PREINCUBATION) was “inactive; negative”.

`Nc1cccc(O)c1`: the mutagenic call was “inactive; negative” under setting [1]; “inactive; negative” under setting [2]; “inactive; negative” under setting [3]; “active; positive” (Test System: AMES SALMONELLA TYPHIMURIUM, Strain/Indicator: TA98, Metabolic Activation: HAMSTER, LIVER, S-9, AROCLOR 1254 (5 OR 10%), Method: PREINCUBATION); “inactive; negative” under setting [4]; “inactive; negative” under setting [12]. Besides, the mutagenic call was “inactive; negative” under setting [5]; “inactive; negative” (Test System: AMES SALMONELLA TYPHIMURIUM, Strain/Indicator: TA98, Metabolic Activation: RAT, LIVER, S-9, AROCLOR 1254 (5, 10 OR 30%), Method: PREINCUBATION); “inactive; negative” under setting [13]; “inactive; negative” under setting [6]; “inactive; negative” under setting [7]; “inactive; negative” under setting [8]. Moreover, the mutagenic call is, setting by setting: under setting [9], “inactive; negative”; under setting [10], “inactive; negative”; under setting [11], “inactive; negative”.

With `O=C(O)[C@@H]1Cc2c([nH]c3ccccc23)[C@@H]([C@H]2CCNC2=S)N1`, the mutagenic call reads like this: under setting [12], “inactive; negative”; under setting [13], “active; positive”; (Test System: AMES SALMONELLA TYPHIMURIUM, Strain/Indicator: TA100, Metabolic Activation: NONE) “inactive; negative”; (Test System: AMES SALMONELLA TYPHIMURIUM, Strain/Indicator: TA100, Metabolic Activation: S-9) “inactive; negative”.

`C=CC(=O)CC`: the mutagenic call was “active; positive” under setting [7] and “active; positive” (Test System: AMES SALMONELLA TYPHIMURIUM, Strain/Indicator: TA100, Metabolic Activation: RAT, LIVER, S-9, AROCLOR, Method: PREINCUBATION).
